The values that follow come from patent publication US10369134B2, “Nonracemic mixtures and uses thereof” (Sunovion Pharmaceuticals Inc., priority 2017, dated 2019).

The conditions of data set [1]: cited from earlier work.
A short description of data set [2]: Dynamic vapor sorption (DVS) water sorption isotherm. Conditions: for maximum mass change in water sorption isotherms: 25° C., scanned over 0 to 95% relative humidity; for Change Mass: FIG. 8D. The format is physicochemical. From the text:
In various embodiments, the hygroscopicity of crystal forms of racemic amisulpride, enantiomeric amisulpride, and enantiomeric amisulpride solvates are characterized by dynamic vapor sorption (DVS). DVS is a gravimetric technique that measures how much of a solvent is absorbed by a sample by varying the vapor concentration surrounding the sample (e.g., relative humidity) and measuring the change in mass. In the present application, DVS is used to generate water sorption isotherms, which represent the equilibrium amount of vapor sorbed as a function of steady state relative vapor pressure at a constant temperature.

Data set [3] can be described thus: Solubility of crystal forms. Type of data set: physicochemical. As to conditions: thermodynamic from solid. The source says:
In various embodiments, the compositions of the present inventions use new crystalline forms of enantiomeric amisulpride, Form A and Form A′. […] It is to be understood that upon dissolution of the compound it is no longer of a crystalline form, thus one of ordinary skill in the art will understand that the specific rotation in Table 7 refers to that of the non-crystalline compound.

For the next data set, the system named is rat. Briefly: Forced Swim test. Type of data set: in vivo. On the procedure: The Forced Swim test (FST) is an indicator of the antidepressant-like activity of a test compound. The rat will swim before “giving up” and becoming immobile. A compound with antidepressant-like activity will decrease the time the rat is immobile.
The animals (n=90) were divided into five groups. […] In the training session, each animal was gently placed into the plastic cylinder containing 5.8 L of water set at 25±1° C. Fifteen minutes after the beginning of the training session, the animal was removed from the water. The dosing solutions were administered 15 minutes after finishing of the training.
The swim test was performed for 5 minutes in the same manner as the training session. In the swim test, the behavior of each animal was horizontally recorded using a video camera. After the swim test, animals were immediately sacrificed by inhalation of carbon dioxide.
The swim movies were handled in a blind manner to ensure that the person who measured the immobility time had no information on the treatment. An animal was judged to be immobile whenever it remained floating in the water without moving its body or forepaws except for the slight movement to maintain its posture. The total time for which the animal remained immobile was defined as the immobility time. An observer blinded to the doses measured the immobility times. The immobility time of each animal was measured to one decimal place and rounded to a whole number. Immobility time was expressed in units of seconds. In each series the means of immobility time were calculated and rounded to a whole number using. The mean and standard error (SE) for each group were calculated using the data obtained from three experimental series and rounded to a whole number. All results are represented as the mean±SE.
The data of imipramine were analyzed using t-test with a two-sided significance level of 5% (p<0.05).

Data set [4] can be described thus: Plasma (S)-amisulpride levels during the PET study. The format is in vivo. Conditions: human, single oral solution 25-200 mg. The method, then: Plasma samples were collected throughout the course of the PET scan session and were analyzed for (S)-amisulpride levels.
Setting [5] is: 0.05 M acetate buffer, aqueous buffer, solution pH 4.5, read-out: Solubility, 0.05 M Acetate Buffer.
Where [6] appears, read: acetone/MtBE 1:4, organic solvent or mixture, read-out: Solubility, Acetone/MtBE 1:4.
[7] abbreviates: acetone/MtBE 1:9, organic solvent or mixture, read-out: Solubility, Acetone/MtBE 1:9.
The mark [8] stands for this setting: ethyl acetate, organic solvent or mixture, read-out: Solubility, Ethyl Acetate.
Setting [9] is: simulated gastric fluid (no enzyme), pH 1.1, simulated gastric fluid, pH adjusted to 1.1 (Form A), 1.2 (Form A′), read-out: Solubility, Simulated Gastric Fluid (no enzyme).
The mark [10] stands for this setting: simulated intestinal fluid (no enzyme), pH 6.7, fassgf or other biorelevant, pH adjusted to 6.7 (Form A), 6.9 (Form A′), read-out: Solubility, Simulated Intestinal Fluid (no enzyme).
The mark [11] stands for this setting: water, pH 10.2, water, read-out: Solubility, Water.

Values after ≈ are worked out from the molar mass of the structure shown. Like-named read-outs stand apart in the source and are kept apart here.

For `CCN1CCCC1CNC(=O)c1cc(S(=O)(=O)CC)c(N)cc1OC` (racemic) [racemic amisulpride, 4-amino-N-[(1-ethylpyrrolidin-2-yl)methyl]-5-ethylsulfonyl-2-methoxy-benzamide], in data set [1] (biphasic elimination, Coukell et al. 1996), the terminal plasma half-life entry was “approximately 12 hours”.
For `CCN1CCC[C@H]1CNC(=O)c1cc(S(=O)(=O)CC)c(N)cc1OC` [(S)-amisulpride Form A′, S-4-Amino-N-[(1-ethyl-2-pyrrolidinyl)methyl]-5-(ethylsulfonyl)-2-methoxybenzamide], the “maximum mass change in water sorption isotherms” value in data set [2] is 0.35%. Also, the “Change Mass” value is 0.00 wt % in data set [2] (19.077 mg, relative humidity 0 %, rising steps); −0.01 wt % in data set [2] (relative humidity 1 %, falling steps); 0.01 wt % in data set [2] (relative humidity 10 %, falling steps); 0.03 wt % in data set [2] (relative humidity 10 %, rising steps); 0.03 wt % in data set [2] (relative humidity 20 %, falling steps); 0.05 wt % in data set [2] (relative humidity 20 %, rising steps). Besides, the “Change Mass” value in data set [2] (relative humidity 30 %, falling steps) is reported as 0.05 wt %; in data set [2] (relative humidity 30 %, rising steps) it was 0.07 wt %; in data set [2] (relative humidity 40 %, falling steps), 0.07 wt %; in data set [2] (relative humidity 40 %, rising steps), 0.09 wt %; in data set [2] (relative humidity 50 %, falling steps) it was 0.08 wt %; in data set [2] (relative humidity 50 %, rising steps), 0.11 wt %. In addition, the “Change Mass” value came to 0.11 wt % in data set [2] (relative humidity 60 %, falling steps); 0.13 wt % in data set [2] (relative humidity 60 %, rising steps); 0.14 wt % in data set [2] (relative humidity 70 %, falling steps); 0.16 wt % in data set [2] (relative humidity 70 %, rising steps); 0.16 wt % in data set [2] (relative humidity 75 %, falling steps); 0.18 wt % in data set [2] (relative humidity 75 %, rising steps). The “Change Mass” value worked out at 0.17 wt % in data set [2] (relative humidity 80 %, falling steps); 0.19 wt % in data set [2] (relative humidity 80 %, rising steps); 0.28 wt % in data set [2] (relative humidity 90 %, falling steps); 0.25 wt % in data set [2] (relative humidity 90 %, rising steps); 0.34 wt % in data set [2] (relative humidity 95 %, first step at 95 %); 0.35 wt % in data set [2] (relative humidity 95 %, second step at 95 %). Moreover, the solubility is over 100000 µg/mL in data set [3] (setting [5]); 8000 µg/mL (≈ 21.7 mM) in data set [3] (setting [6]); 2000 µg/mL (≈ 5.41 mM) in data set [3] (setting [7]); 3900 µg/mL (≈ 10.6 mM) in data set [3] (setting [8]); over 100000 µg/mL in data set [3] (setting [9]); over 100000 µg/mL in data set [3] (setting [10]). For the same compound, the solubility in data set [3] (setting [11]) came out at 2000 µg/mL (≈ 5.41 mM).
With `OCCOCCN1CCN(C2=Nc3ccccc3Sc3ccccc32)CC1` [quetiapine], the elimination half-life result in data set [1] (literature (Delaney and Nemeroff 2001)) is reported as “about 7 hours”.
`CCN1CCC[C@@H]1CNC(=O)c1cc(S(=O)(=O)CC)c(N)cc1OC` [(R)-amisulpride Form A, R-4-Amino-N-[(1-ethyl-2-pyrrolidinyl)methyl]-5-(ethylsulfonyl)-2-methoxybenzamide]: the solubility in data set [3] (setting [5]) was over 100000 µg/mL; in data set [3] (setting [6]) it was 8000 µg/mL (≈ 21.7 mM); in data set [3] (setting [7]), 2000 µg/mL (≈ 5.41 mM); in data set [3] (setting [8]) it was 3900 µg/mL (≈ 10.6 mM); in data set [3] (setting [9]) it was over 100000 µg/mL; in data set [3] (setting [10]), over 100000 µg/mL. Besides, the solubility in data set [3] (setting [11]) is 2000 µg/mL (≈ 5.41 mM).
`CN(C)CCCN1c2ccccc2CCc2ccccc21` [Imipramine, imipramine] had an immobility time in the data set with rat (10 mg/kg i.p. at 24, 5 and 1 h before swim test, mean ± SE, vehicle 168±12) of 105 ± 15 s. In addition, in the data set on rat (10 mg/kg i.p., in all series, vs vehicle), the “shortening of immobility time” value is reported as “more than 20%”.
In the case of `CCN1CCCC1CNC(=O)c1cc(S(=O)(=O)CC)c(N)cc1OC.O=C(O)C(O)C(O)C(=O)O` [(S)-amisulpride D-tartrate, reference compound], the “maximum mass change in water sorption isotherms” value in data set [2] is reported as 52±9%.
For the compound `CCN1CCC[C@H]1CNC(=O)c1cc(S(=O)(=O)CC)c(N)cc1OC` [(S)-amisulpride, S-4-Amino-N-[(1-ethyl-2-pyrrolidinyl)methyl]-5-(ethylsulfonyl)-2-methoxybenzamide], the “time frame in which plasma concentrations peaked” value in data set [4] is “approximately 3 hour”.
